Where a name gives a salt, the structure may show the parent alone.

What is called melting point is the temperature of the solid-liquid transition. Consider `CNCc1ccc(C(F)(F)F)cc1Oc1ccc(Cl)c(Cl)c1`, for which the melting point was in the range of 164 to 166 °C.
Regarding `CNCc1ccc(Cl)cc1Oc1ccc(Cl)c(Cl)c1`, the melting point was 132 to 133 °C.
Turning to `CNC(C)c1cc(F)ccc1Oc1ccc(Cl)c(Cl)c1` (stereo not shown), the melting point stood at 127 °C.
Then `CC(=O)Nc1ccc(Oc2ccc(Cl)c(Cl)c2)c(CN(C)C)c1.Cl`, with 199 to 202 °C; and `Cl.Fc1ccc(Oc2ccc(Cl)c(Cl)c2)c(C2CCCN2)c1` (stereo not shown), with 171 to 173 °C; and `CN(C)Cc1cc(C(F)(F)F)ccc1Oc1ccc(Cl)c(Cl)c1.O=C(O)/C=C\C(=O)O`, with 127 to 128 °C.
For `CNCc1cc(F)ccc1Oc1ccc(Cl)cc1` (as salt: HCl), the melting point lay within 208 to 209 °C.
In turn, `CC(c1ccccc1Oc1ccc(Cl)c(Cl)c1)N(C)C` (stereo not shown) (as salt: HCl) registered a melting point of 130 to 133 °C.
`CNC(C)c1ccccc1Oc1ccc(Cl)cc1` (stereo not shown) (as salt: HCl): the melting point lay within 147 to 149 °C.
`CNCc1cc(OC)c(OC)cc1Oc1ccc(Cl)c(Cl)c1` (as salt: HCl) had a melting point of 143 to 145 °C.
The compound `CNCc1cc(Br)ccc1Oc1ccc(Cl)c(Cl)c1` (as salt: HCl) gave a melting point of 206 to 210 °C.
For `CNCc1ccc(Br)cc1Oc1ccc(Cl)c(Cl)c1` (as salt: HCl), the melting point was 185 to 189 °C.
In turn, `Cc1ccc(Oc2ccc(Cl)c(Cl)c2)c(CN(C)C)c1` (as salt: HCl) returned a melting point of 196 to 198 °C.
Turning to `CNCc1cc(OC)ccc1Oc1ccc(Cl)c(Cl)c1` (as salt: HCl) (hydrate or solvate), the melting point was in the range of 140 to 141 °C.
Regarding `CN(C)Cc1cc(F)ccc1Oc1ccc(Cl)c(Cl)c1` (as salt: HCl) [Example 13, [2-(3,4-Dichlorophenoxy)-5-fluorobenzyl]-dimethylamine], the melting point lay in the range of 174 to 175 °C.
`NCc1cc(F)ccc1Oc1ccc(Cl)c(Cl)c1` (as salt: hydrochloride) [Example 57, 2-(3,4-DICHLOROPHENOXY)-5-FLUORO-BENZYLAMINE] gave a melting point of 190 to 194 °C.
